According to ChEMBL document CHEMBL4665869, “New thiazolopyrimidine as anticancer agents: Synthesis, biological evaluation, DNA binding, molecular modeling and ADMET study” (Bioorg Med Chem Lett, 2020):
In brackets after ≈: the same amount, converted by molar mass.

Key:
NCI-H522 = experiment: Growth inhibition of human NCI-H522 cells at 10 uM relative to control; type: functional; details: read-out: GI
MCF7 = experiment: Growth inhibition of human MCF7 cells at 10 uM relative to control; type: functional; details: read-out: GI
HCT-15 = experiment: Growth inhibition of human HCT-15 cells at 10 uM relative to control; type: functional; details: read-out: GI
SK-MEL-5 = experiment: Growth inhibition of human SK-MEL-5 cells at 10 uM relative to control; type: functional; details: read-out: GI
HL-60(TB) = experiment: Growth inhibition of human HL-60(TB) cells at 10 uM relative to control; type: functional; details: read-out: GI
K562 = experiment: Growth inhibition of human K562 cells at 10 uM relative to control; type: functional; details: read-out: GI
SF-539 = experiment: Growth inhibition of human SF-539 cells at 10 uM relative to control; type: functional; details: read-out: GI
OVCAR-8 = experiment: Growth inhibition of human OVCAR-8 cells at 10 uM relative to control; type: functional; details: read-out: GI
DU-145 = experiment: Growth inhibition of human DU-145 cells at 10 uM relative to control; type: functional; details: read-out: GI
UACC-257 = experiment: Growth inhibition of human UACC-257 cells at 10 uM relative to control; type: functional; details: read-out: GI
Hs-578T = experiment: Growth inhibition of human Hs-578T cells at 10 uM relative to control; type: functional; details: read-out: GI
SF-268 = experiment: Growth inhibition of human SF-268 cells at 10 uM relative to control; type: functional; details: read-out: GI
IGROV-1 = experiment: Growth inhibition of human IGROV-1 cells at 10 uM relative to control; type: functional; details: read-out: GI
BT-549 = experiment: Growth inhibition of human BT-549 cells at 10 uM relative to control; type: functional; details: read-out: GI
PC-3 = experiment: Growth inhibition of human PC-3 cells at 10 uM relative to control; type: functional; details: read-out: GI
NCI-H23 = experiment: Growth inhibition of human NCI-H23 cells at 10 uM relative to control; type: functional; details: read-out: GI
Malme-3M = experiment: Growth inhibition of human Malme-3M cells at 10 uM relative to control; type: functional; details: read-out: GI
NCI-H322M = experiment: Growth inhibition of human NCI-H322M cells at 10 uM relative to control; type: functional; details: read-out: GI
LOX IMVI = experiment: Growth inhibition of human LOX IMVI cells at 10 uM relative to control; type: functional; details: read-out: GI
SW-620 = experiment: Growth inhibition of human SW-620 cells at 10 uM relative to control; type: functional; details: read-out: GI
COLO 205 = experiment: Growth inhibition of human COLO 205 cells at 10 uM relative to control; type: functional; details: read-out: GI
SK-MEL-2 = experiment: Growth inhibition of human SK-MEL-2 cells at 10 uM relative to control; type: functional; details: read-out: GI
RPMI-8226 = experiment: Growth inhibition of human RPMI-8226 cells at 10 uM relative to control; type: functional; details: read-out: GI
HCC 2998 = experiment: Growth inhibition of human HCC 2998 cells at 10 uM relative to control; type: functional; details: read-out: GI
UO-31 = experiment: Growth inhibition of human UO-31 cells at 10 uM relative to control; type: functional; details: read-out: GI
M14 = experiment: Growth inhibition of human M14 cells at 10 uM relative to control; type: functional; details: read-out: GI
TK-10 = experiment: Growth inhibition of human TK-10 cells at 10 uM relative to control; type: functional; details: read-out: GI
HOP-62 = experiment: Growth inhibition of human HOP-62 cells at 10 uM relative to control; type: functional; details: read-out: GI
ACHN = experiment: Growth inhibition of human ACHN cells at 10 uM relative to control; type: functional; details: read-out: GI
SNB-75 = experiment: Growth inhibition of human SNB-75 cells at 10 uM relative to control; type: functional; details: read-out: GI
NCI-H226 = experiment: Growth inhibition of human NCI-H226 cells at 10 uM relative to control; type: functional; details: read-out: GI
A549 = experiment: Growth inhibition of human A549 cells at 10 uM relative to control; type: functional; details: read-out: GI
KM12 = experiment: Growth inhibition of human KM12 cells at 10 uM relative to control; type: functional; details: read-out: GI
CCRF-CEM = experiment: Growth inhibition of human CCRF-CEM cells at 10 uM relative to control; type: functional; details: read-out: GI
SK-OV-3 = experiment: Growth inhibition of human SK-OV-3 cells at 10 uM relative to control; type: functional; details: read-out: GI
HCT-116 = experiment: Growth inhibition of human HCT-116 cells at 10 uM relative to control; type: functional; details: read-out: GI
SNB-19 = experiment: Growth inhibition of human SNB-19 cells at 10 uM relative to control; type: functional; details: read-out: GI
OVCAR-5 = experiment: Growth inhibition of human OVCAR-5 cells at 10 uM relative to control; type: functional; details: read-out: GI
RXF 393 = experiment: Growth inhibition of human RXF 393 cells at 10 uM relative to control; type: functional; details: read-out: GI
CAKI-1 = experiment: Growth inhibition of human CAKI-1 cells at 10 uM relative to control; type: functional; details: read-out: GI
U-251 = experiment: Growth inhibition of human U-251 cells at 10 uM relative to control; type: functional; details: read-out: GI
NCI-H460 = experiment: Growth inhibition of human NCI-H460 cells at 10 uM relative to control; type: functional; details: read-out: GI
MDA-MB-231 = experiment: Growth inhibition of human MDA-MB-231 cells at 10 uM relative to control; type: functional; details: read-out: GI
786-0 = experiment: Growth inhibition of human 786-0 cells at 10 uM relative to control; type: functional; details: read-out: GI
UACC-62 = experiment: Growth inhibition of human UACC-62 cells at 10 uM relative to control; type: functional; details: read-out: GI
SR = experiment: Growth inhibition of human SR cells at 10 uM relative to control; type: functional; details: read-out: GI
MOLT-4 = experiment: Growth inhibition of human MOLT-4 cells at 10 uM relative to control; type: functional; details: read-out: GI
SN12C = experiment: Growth inhibition of human SN12C cells at 10 uM relative to control; type: functional; details: read-out: GI
MDA-MB-435 = experiment: Growth inhibition of human MDA-MB-435 cells at 10 uM relative to control; type: functional; details: read-out: GI
HT-29 = experiment: Growth inhibition of human HT-29 cells at 10 uM relative to control; type: functional; details: read-out: GI
MDA-MB-468 = experiment: Growth inhibition of human MDA-MB-468 cells at 10 uM relative to control; type: functional; details: read-out: GI
DNA = experiment: Displacement of methyl green from DNA (unknown origin) assessed as DNA intercalation after 24 hrs by colorimetric assay; type: nucleic-acid assay
A498 = experiment: Growth inhibition of human A498 cells at 10 uM relative to control; type: functional; details: read-out: GI
T47D = experiment: Growth inhibition of human T47D cells at 10 uM relative to control; type: functional; details: read-out: GI
SF-295 = experiment: Growth inhibition of human SF-295 cells at 10 uM relative to control; type: functional; details: read-out: GI
OVCAR-4 = experiment: Growth inhibition of human OVCAR-4 cells at 10 uM relative to control; type: functional; details: read-out: GI
HOP-92 = experiment: Growth inhibition of human HOP-92 cells at 10 uM relative to control; type: functional; details: read-out: GI
NCI/ADR-RES = experiment: Growth inhibition of human NCI/ADR-RES cells at 10 uM relative to control; type: functional; details: read-out: GI
SK-MEL-28 = experiment: Growth inhibition of human SK-MEL-28 cells at 10 uM relative to control; type: functional; details: read-out: GI

CC1=CN2C(=NC(/C=C/c3ccc(Cl)cc3)=CC2c2ccc(Cl)cc2)S1 (centres undefined)
inhibition of growth at 10 µM (NCI-H522): < 10% | inhibition of growth at 10 µM (MCF7): < 10% | inhibition of growth at 10 µM (HCT-15): < 10% | inhibition of growth at 10 µM (SK-MEL-5): < 10% | inhibition of growth at 10 µM (HL-60(TB)): < 10% | inhibition of growth at 10 µM (K562): < 10% | inhibition of growth at 10 µM (SF-539): < 10% | inhibition of growth at 10 µM (OVCAR-8): < 10% | inhibition of growth at 10 µM (DU-145): < 10% | inhibition of growth at 10 µM (UACC-257): < 10% | inhibition of growth at 10 µM (Hs-578T): < 10% | inhibition of growth at 10 µM (SF-268): < 10% | inhibition of growth at 10 µM (IGROV-1): < 10% | inhibition of growth at 10 µM (BT-549): < 10% | inhibition of growth at 10 µM (PC-3): < 10% | inhibition of growth at 10 µM (NCI-H23): < 10% | inhibition of growth at 10 µM (Malme-3M): < 10% | inhibition of growth at 10 µM (NCI-H322M): < 10% | inhibition of growth at 10 µM (LOX IMVI): < 10% | inhibition of growth at 10 µM (SW-620): < 10% | inhibition of growth at 10 µM (COLO 205): < 10% | inhibition of growth at 10 µM (SK-MEL-2): < 10% | inhibition of growth at 10 µM (RPMI-8226): < 10% | inhibition of growth at 10 µM (HCC 2998): < 10% | inhibition of growth at 10 µM (UO-31): < 10% | inhibition of growth at 10 µM (M14): < 10% | inhibition of growth at 10 µM (TK-10): < 10% | inhibition of growth at 10 µM (HOP-62): < 10% | inhibition of growth at 10 µM (ACHN): < 10% | inhibition of growth at 10 µM (SNB-75): 17.3% | inhibition of growth at 10 µM (NCI-H226): < 10% | inhibition of growth at 10 µM (A549): < 10% | inhibition of growth at 10 µM (KM12): < 10% | inhibition of growth at 10 µM (CCRF-CEM): < 10% | inhibition of growth at 10 µM (SK-OV-3): < 10% | inhibition of growth at 10 µM (HCT-116): < 10% | inhibition of growth at 10 µM (SNB-19): < 10% | inhibition of growth at 10 µM (OVCAR-5): < 10% | inhibition of growth at 10 µM (RXF 393): < 10% | inhibition of growth at 10 µM (CAKI-1): < 10% | inhibition of growth at 10 µM (U-251): < 10% | inhibition of growth at 10 µM (NCI-H460): < 10% | inhibition of growth at 10 µM (MDA-MB-231): < 10% | inhibition of growth at 10 µM (786-0): < 10% | inhibition of growth at 10 µM (UACC-62): < 10% | inhibition of growth at 10 µM (SR): < 10% | inhibition of growth at 10 µM (MOLT-4): < 10% | inhibition of growth at 10 µM (SN12C): < 10% | inhibition of growth at 10 µM (MDA-MB-435): < 10% | inhibition of growth at 10 µM (HT-29): < 10% | inhibition of growth at 10 µM (MDA-MB-468): < 10% | IC50 (DNA): 45.18 µg/mL (≈ 113 µM) | inhibition of growth at 10 µM (A498): 12.3% | inhibition of growth at 10 µM (T47D): < 10% | inhibition of growth at 10 µM (SF-295): < 10% | inhibition of growth at 10 µM (OVCAR-4): < 10% | inhibition of growth at 10 µM (HOP-92): < 10% | inhibition of growth at 10 µM (NCI/ADR-RES): < 10% | inhibition of growth at 10 µM (SK-MEL-28): < 10%
